Test results published in patent publication US20120015939A1, “TOPICAL TREATMENT OF NEUROPATHIC PAIN AND METHODS OF DIAGNOSIS” (Arcion Therapeutics, Inc., priority 2010, published 2012).
Like-named read-outs stand apart in the source and are kept apart here.

Legend:
[1] = tested on: painful diabetic neuropathy; conditions: systemic clonidine by transdermal patches; cross-over; cited from earlier work
[2] = in vivo; cited from earlier work
[3] = topical 0.1% and 0.2% clonidine
Description: The dosage formulation is administered from once a day to several times a day, depending on the patient. […] The dose is determined by the region of pain. […] The area treated is constrained by the systemic dosing.

[4] = tested on: pain associated with painful diabetic neuropathy (PDN)
Description: Pain was assessed each day using a pain diary using a standardized numerical pain rating scale (NPRS). The average pain for each week was calculated and the difference from baseline was determined (week x minus baseline). […] The baseline pain scores were imputed for missing data arising from premature withdrawal from the study (BOCF, baseline observation carried forward).
Capsaicin 0.1% was applied to the pretibial area between the knee and ankle in each patient. The area was occluded for 30 minutes, at which time patients rated the painfulness of the capsaicin stimulus. It was reasoned that in patients with PDN that the afferented group would detect and rate the capsaicin stimulus as painful, while the deafferented group would fail to detect the stimulus.

clinical = conditions: human, in vivo
Excerpt: In study CLO-027, blood samples for PK analysis were obtained at baseline, and at Weeks 2 and 12 of treatment.

[5] = tested on: painful diabetic neuropathy; conditions: cited from earlier work

Q: With Clc1cccc(Cl)c1N=C1NCCN1 [clonidine] as the compound, how does the “Difference in pain between clonidine patches and placebo patches” value [1] read?
A: no statistically significant difference

Q: What about the “Lower threshold blood level considered necessary to treat hypertension” value [2] of the same compound?
A: 0.200 ng/mL

Q: And the Mean blood level [3]?
A: below 0.1 ng/mg

Q: And the “Patients with no detectable clonidine in the blood” value [3]?
A: one third of patients had no detectable clonidine in the blood

Q: And the “Efficacy over placebo in relieving diabetic pain (change in NPRS over time)” value (from here on “Efficacy … (change in NPRS over time)”) ([4]; capsaicin pain rating of two or more, 0 to 10 scale (FIG. 4C))?
A: significantly superior to placebo

Q: And the “Efficacy … (change in NPRS over time)” value ([4]; patients who did not detect the capsaicin stimulus (FIG. 4A))?
A: no efficacy over placebo

Q: What about the “Efficacy … (change in NPRS over time)” value ([4]; subjects who detected capsaicin, pain rating > 0 (FIG. 4B)) of the same compound?
A: significantly superior to placebo

Q: And the concentration at 2 weeks (clinical)?
A: 0.017 ng/mL

Q: And the concentration at 12 weeks (clinical)?
A: 0.019 ng/mL

Q: And the “Pain reduction relative to placebo” value ([5]; responders rechallenged at highest patch dosage, p<0.015)?
A: modest although statistically significant

Q: What about the “Patients considered clonidine responders” value ([5]; twelve of forty-one patients who completed the initial course of treatment) of the same compound?
A: 29%
